In patent publication US8450318B2 (priority 2007, dated 2013):
Values after ≈ are worked out from the molar mass of the structure shown. Where two headings read alike, the source gives them in different places.

What was measured:
[1] = system: Influenza A H3N2 subtype; test: Anti-influenza activity in MDCK cells, Influenza A H3N2; format: cell-based; conditions: for EC50 Influenza A H3N2 subtype MTS: cell viability, formazan-based MTS assay; for EC50 Influenza A H3N2 subtype visual CPE score: visual scoring of the CPE; for EC50: reference compounds
From the text: (§1) MDCK cells (Madin Darby canine kidney cells) have been used for the experiments shown in table 5 using standard procedures known in the art.

[2] = system: Influenza B; test: Anti-influenza activity in MDCK cells, Influenza B; format: cell-based; conditions: for EC50 Influenza B MTS: cell viability, formazan-based MTS assay; for EC50 Influenza B visual CPE score: visual scoring of the CPE; for EC50: reference compounds
[3] = system: Influenza A H1N1 subtype; test: Anti-influenza activity in MDCK cells, Influenza A H1N1; format: cell-based; conditions: for EC50 Influenza A H1N1 subtype MTS: cell viability, formazan-based MTS assay; for EC50 Influenza A H1N1 subtype visual CPE score: visual scoring of the CPE; for EC50: reference compounds
From the text: as §1

[4] = system: HIV-1
[5] = system: HIV-2; test: Antiretrovirus assay, HIV-2
[6] = system: Feline Corona virus; test: Activity on feline corona virus in CRFK cells; format: cell-based
[7] = system: CRFK cells; conditions: cytotoxicity, feline corona virus test
[8] = system: Vesicular stomatitis virus; test: microbe, parasite or virus in culture; format: cell-based; conditions: read-out: EC50 Vesicular stomatitis virus
[9] = system: Herpes simples virus-2 (G); test: Antiviral activity, Herpes simplex virus-2 (G); format: cell-based; conditions: Human alphaherpesvirus 2; Table 4, reference compounds
[10] = system: Herpes simplex virus-1 TK KOS-ACV^r; test: Antiviral activity, Herpes simplex virus-1 TK KOS-ACVr; format: cell-based; conditions: Human alphaherpesvirus 1, read-out: EC50 Herpes simplex virus-1 TK KOS-ACV^r
[11] = system: Vaccinia virus; test: microbe, parasite or virus in culture; format: cell-based; conditions: Orthopoxvirus vaccinia, read-out: EC50 Vaccinia virus
[12] = system: Herpes simplex virus-1 (KOS); test: Antiviral activity, Herpes simplex virus-1 (KOS); format: cell-based; conditions: Human alphaherpesvirus 1; Table 4, reference compounds
[13] = system: human corona (SARS) virus; test: microbe, parasite or virus in culture; format: cell-based; conditions: human corona (SARS) virus
[14] = system: CRFK cells; conditions: cytotoxicity, human corona virus test
[15] = system: CEM cells; test: Cytostatic/cytotoxic activity, inhibition of CEM cell proliferation; conditions: Table 1; for CC50: 50% cytostatic concentration, CEM cell proliferation
[16] = MTS, read-out: EC50 Influenza A H3N2 subtype MTS
[17] = visual CPE, read-out: EC50 Influenza A H3N2 subtype visual CPE score
[18] = MTS, read-out: EC50 Influenza B MTS
[19] = visual CPE, read-out: EC50 Influenza B visual CPE score
[20] = MTS, read-out: EC50 Influenza A H1N1 subtype MTS
[21] = visual CPE, read-out: EC50 Influenza A H1N1 subtype visual CPE score
[22] = Table 1, CEM cells, prevention of syncytium formation by 50%, 4 to 5 days

## CCc1c(CNc2cccc(C(C)=NO)c2)c(CC)c(CNc2cc(C)cc(C)n2)c(CC)c1CNc1cc(C)cc(C)n1 [ABT5]
[1]
  EC50 Influenza A H3N2 subtype MTS: >4 µg/mL
  EC50 Influenza A H3N2 subtype visual CPE score: >4 µg/mL
[2]
  EC50 Influenza B MTS: >4 µg/mL
  EC50 Influenza B visual CPE score: >4 µg/mL
[3]
  EC50 Influenza A H1N1 subtype MTS: >4 µg/mL
  EC50 Influenza A H1N1 subtype visual CPE score: >4 µg/mL

## CCc1c(CNc2cccc(CO)c2)c(CC)c(CNc2cc(C)cc(C)n2)c(CC)c1CNc1cc(C)cc(C)n1 [ABT6]
[4]; Table 1a
  EC50 HIV-1: >2 µg/mL
[5]; Table 1a
  EC50 HIV-2: >2 µg/mL

## CCOC(=O)CNc1cccc(NCc2c(CC)c(CNc3cccc(C)n3)c(CC)c(CNc3cccc(C)n3)c2CC)n1 [AH29]
[6]
  Feline Corona virus EC50: >4 µg/mL
[7]
  Feline Corona virus CC50: 13.3 µg/mL

## CCc1c(CNc2cccc(C)n2)c(CC)c(CNc2cccc(NC(=O)Cc3ccccc3)n2)c(CC)c1CNc1cccc(C)n1 [AH30]
[1]
  EC50 Influenza A H3N2 subtype MTS: >4 µg/mL
  EC50 Influenza A H3N2 subtype visual CPE score: >4 µg/mL
[2]
  EC50 Influenza B MTS: >4 µg/mL
  EC50 Influenza B visual CPE score: >4 µg/mL
[3]
  EC50 Influenza A H1N1 subtype MTS: >4 µg/mL
  EC50 Influenza A H1N1 subtype visual CPE score: >4 µg/mL

## Nc1nc2c(ncn2COCCO)c(=O)[nH]1 [Acyclovir]
[8]
  EC50: > 250 µM
[9]
  EC50: 0.08 µM
[10]
  EC50: 150 µM
[11]
  EC50: > 250 µM
[12]
  EC50: 0.4 µM

## NC12CC3CC(CC(C3)C1)C2 [Amantadin, reference compound]
[1]; [16]
  EC50: 1.6 µM
[1]; [17]
  EC50: 4 µM
[2]; [18]
  EC50: > 100 µM
[2]; [19]
  EC50: > 100 µM
[3]; [20]
  EC50: 59.3 µM
[3]; [21]
  EC50: 58.5 µM

## CCc1c(CNCC2COCCOCCOCCOCCO2)c(CC)c(CNc2cc(C)cc(C)n2)c(CC)c1CNc1cc(C)cc(C)n1 (stereo not shown) [Co12]
[13]
  Human Corona virus EC50: 1.9 ± 0.6 µg/mL
[4]; Table 1a
  EC50 HIV-1: 1.35 ± 0.29 µg/mL (≈ 1.95 µM)
[5]; Table 1a
  EC50 HIV-2: >4 µg/mL
[6]
  Feline Corona virus EC50: 1.4 ± 0.2 µg/mL
[7]
  Feline Corona virus CC50: 11 ± 0 µg/mL
[14]
  Human Corona virus CC50: 13 ± 1.2 µg/mL

## CCc1c(CC#N)c(CC)c(CNc2cc(C)cc(C)n2)c(CC)c1CNc1cc(C)cc(C)n1 [Co19]
[4]; Table 1a
  EC50 HIV-1: >2 µg/mL
[5]; Table 1a
  EC50 HIV-2: >2 µg/mL
[6]
  Feline Corona virus EC50: >4 µg/mL
[7]
  Feline Corona virus CC50: 10.8 µg/mL

## CCc1c(CN)c(CC)c(CNc2cc(C)cc(C)n2)c(CC)c1CNc1cc(C)cc(C)n1.Cl [Co28]
[1]
  EC50 Influenza A H3N2 subtype MTS: >0.8 µg/mL
  EC50 Influenza A H3N2 subtype visual CPE score: >0.8 µg/mL
[2]
  EC50 Influenza B MTS: >0.8 µg/mL
  EC50 Influenza B visual CPE score: >0.8 µg/mL
[3]
  EC50 Influenza A H1N1 subtype MTS: >0.8 µg/mL
  EC50 Influenza A H1N1 subtype visual CPE score: >0.8 µg/mL

## CCc1c(CNc2cc(C)cc(C)n2)c(CC)c(CNc2ccc3ccc(C)nc3n2)c(CC)c1CNc1cc(C)cc(C)n1 [Co50]
[4]; Table 1a
  EC50 HIV-1: >2 µg/mL
[5]; Table 1a
  EC50 HIV-2: >2 µg/mL

## CCc1c(CNc2cc(C)cc(C)n2)c(CC)c(CNc2ccc3ccc(C)nc3n2)c(CC)c1CNc1ccc2ccc(C)nc2n1 [Co54]
[4]; Table 1a
  EC50 HIV-1: >2 µg/mL
[5]; Table 1a
  EC50 HIV-2: >2 µg/mL

## Cc1ccc2ccc(NCc3c(C)c(CNc4ccc5ccc(C)nc5n4)c(C)c(CNc4ccc5ccc(C)nc5n4)c3C)nc2n1 [Compound 24]
[13]
  Human Corona virus EC50: 38 ± 1 µg/mL
[6]
  Feline Corona virus EC50: 42 ± 0 µg/mL
[7]
  Feline Corona virus CC50: >100 µg/mL
[14]
  Human Corona virus CC50: >100 µg/mL

## CCc1c(CNc2ccc3ccc(C)nc3n2)c(CC)c(CNc2ccc3ccc(C)nc3n2)c(CC)c1CNc1ccc2ccc(C)nc2n1 [Compound 25]
[13]
  Human Corona virus EC50: 20 ± 5 µg/mL
[4]; [22]
  EC50 HIV-1: 1.25 ± 0.35 µg/mL (≈ 1.85 µM)
[1]
  EC50 Influenza A H3N2 subtype MTS: >4 µg/mL
  EC50 Influenza A H3N2 subtype visual CPE score: >4 µg/mL
[15]
  cytotoxicity (in words): low cytotoxicity
  CC50: 81.7 ± 26.0 µg/mL (≈ 121 µM)
[5]; Table 1
  EC50 HIV-2: >20 µg/mL
[6]
  Feline Corona virus EC50: 9.1 ± 0.4 µg/mL
[7]
  Feline Corona virus CC50: 92 ± 9 µg/mL
[14]
  Human Corona virus CC50: >100 µg/mL
[2]
  EC50 Influenza B MTS: >4 µg/mL
  EC50 Influenza B visual CPE score: >4 µg/mL
[3]
  EC50 Influenza A H1N1 subtype MTS: >4 µg/mL
  EC50 Influenza A H1N1 subtype visual CPE score: >4 µg/mL

## Cc1ccc(NCc2c(C)c(CNc3ccc(C)cn3)c(C)c(CNc3ccc(C)cn3)c2C)nc1 [Compound 26]
[4]; [22]
  EC50 HIV-1: >4 µg/mL
[15]
  CC50: 22.0 ± 8.2 µg/mL (≈ 45.8 µM)
[5]; Table 1
  EC50 HIV-2: >4 µg/mL

## CC(=NO)c1cccc(NCc2c(C)c(CNc3cccc(C(C)=NO)c3)c(C)c(CNc3cccc(C(C)=NO)c3)c2C)c1 [Compound 27]
[4]; [22]
  EC50 HIV-1: >4 µg/mL
[15]
  CC50: 20.4 ± 11.4 µg/mL (≈ 33.6 µM)
[5]; Table 1
  EC50 HIV-2: >4 µg/mL

## CCc1c(CNc2cccc(C(C)=NO)c2)c(CC)c(CNc2cccc(C(C)=NO)c2)c(CC)c1CNc1cccc(C(C)=NO)c1 [Compound 28]
[4]; [22]
  EC50 HIV-1: >4 µg/mL
[15]
  CC50: 10.0 ± 0.98 µg/mL (≈ 15.4 µM)
[5]; Table 1
  EC50 HIV-2: >4 µg/mL

## CCc1c(CN)c(CC)c(CNc2cc(C)cc(C)n2)c(CC)c1CNc1cc(C)cc(C)n1 [Compound 29]
[4]; [22]
  EC50 HIV-1: >0.16 µg/mL
[1]
  EC50 Influenza A H3N2 subtype MTS: >0.8 µg/mL
  EC50 Influenza A H3N2 subtype visual CPE score: >0.8 µg/mL
[15]
  CC50: 1.69 ± 0.02 µg/mL (≈ 3.68 µM)
[5]; Table 1
  EC50 HIV-2: >0.8 µg/mL
[2]
  EC50 Influenza B MTS: >0.8 µg/mL
  EC50 Influenza B visual CPE score: >0.8 µg/mL
[3]
  EC50 Influenza A H1N1 subtype MTS: >0.8 µg/mL
  EC50 Influenza A H1N1 subtype visual CPE score: >0.8 µg/mL

## Cc1cccc(NC(=O)c2cc(C(=O)Nc3cccc(C)n3)cc(C(=O)Nc3cccc(C)n3)c2)n1 [Compound 30]
[4]; [22]
  EC50 HIV-1: >20 µg/mL
[15]
  cytotoxicity (in words): low cytotoxicity
  CC50: >100 µg/mL
[5]; Table 1
  EC50 HIV-2: >20 µg/mL

## Nc1nc(O)c2ncn(COC(CO)CO)c2n1 [Ganciclovir]
[8]
  EC50: > 150 µM
[9]
  EC50: 0.032 µM
[10]
  EC50: 12 µM
[11]
  EC50: 100 µM
[12]
  EC50: 0.0064 µM

## CCC(CC)O[C@@H]1C=C(C(=O)O)C[C@H](N)[C@H]1NC(C)=O [Oseltamivir caboxylate, reference compound]
[1]; [16]
  EC50: 1.6 µM
[1]; [17]
  EC50: 1.8 µM
[2]; [18]
  EC50: 2.6 µM
[2]; [19]
  EC50: 4 µM
[3]; [20]
  EC50: 0.003 µM
[3]; [21]
  EC50: 0.004 µM

## Cc1ccc(O)c(NC(=O)c2cc(C(=O)Nc3cc(C)ccc3O)cc(C(=O)Nc3cc(C)ccc3O)c2)c1 [Phe-Kresol]
[1]
  EC50 Influenza A H3N2 subtype MTS: >0.8 µg/mL
  EC50 Influenza A H3N2 subtype visual CPE score: >0.8 µg/mL
[2]
  EC50 Influenza B MTS: >0.8 µg/mL
  EC50 Influenza B visual CPE score: >0.8 µg/mL
[3]
  EC50 Influenza A H1N1 subtype MTS: >0.8 µg/mL
  EC50 Influenza A H1N1 subtype visual CPE score: >0.8 µg/mL

## CC(N)C12CC3CC(CC(C3)C1)C2 (stereo not shown) [Rimantadin, reference compound]
[1]; [16]
  EC50: 0.9 µM
[1]; [17]
  EC50: 2.1 µM
[2]; [18]
  EC50: > 100 µM
[2]; [19]
  EC50: > 100 µM
[3]; [20]
  EC50: 9.9 µM
[3]; [21]
  EC50: 8.9 µM

## Cc1ccc2ccc(NC(=O)c3cccc(C(=O)Nc4ccc5ccc(C)nc5n4)c3)nc2n1 [Sc74]
[1]
  EC50 Influenza A H3N2 subtype MTS: 12.5 µg/mL (≈ 27.9 µM)
  EC50 Influenza A H3N2 subtype visual CPE score: 14.5 ± 7.8 µg/mL (≈ 32.3 µM)
[6]
  Feline Corona virus EC50: 29.0 ± 4.8 µg/mL
[7]
  Feline Corona virus CC50: >100 µg/mL
[2]
  EC50 Influenza B MTS: 9.9 µg/mL (≈ 22.1 µM)
  EC50 Influenza B visual CPE score: 10.9 ± 1.1 µg/mL (≈ 24.3 µM)
[3]
  EC50 Influenza A H1N1 subtype MTS: 9.6 µg/mL (≈ 21.4 µM)
  EC50 Influenza A H1N1 subtype visual CPE score: 15.1 ± 7.0 µg/mL (≈ 33.7 µM)

## Cc1cc(C)c2ccc(NC(=O)c3cc(C(=O)Nc4ccc5c(C)cc(C)nc5n4)cc(C(=O)Nc4ccc5c(C)cc(C)nc5n4)c3)nc2n1 [Sc75]
[1]
  EC50 Influenza A H3N2 subtype MTS: >4 µg/mL
  EC50 Influenza A H3N2 subtype visual CPE score: >4 µg/mL
[2]
  EC50 Influenza B MTS: >4 µg/mL
  EC50 Influenza B visual CPE score: >4 µg/mL
[3]
  EC50 Influenza A H1N1 subtype MTS: >4 µg/mL
  EC50 Influenza A H1N1 subtype visual CPE score: >4 µg/mL
